According to PMC10318527, “Utilization of dietary mixed-linkage β-glucans by the Firmicute Blautia producta” (The Journal of Biological Chemistry, 2023):

How the values were obtained:
Format in all cases: biochemical, Blautia producta ATCC 27340
BpGH16MLG = test: Initial screening of BpGH16MLG against substrates (TLC); conditions: pH 5.7, 37 °C, 2 h
Method: After the appropriate incubation time, the reaction was terminated by boiling (5 min), and generated oligosaccharides were analyzed by thin layer chromatography (TLC). Typically, 1 μl of the reaction mixture was used for TLC analysis. TLC analysis was performed on Silica Gel 60 F254 (Merck), and produced sugars were visualized by spraying TLC with 5% H2SO4 in ethanol, followed by heating.

BpGH94MLG = molecular target: T1, BpGH94MLG (Blautia producta, UniProt A0A7G5MNS2); test: Phosphorolysis activity of BpGH94MLG on substrates (TLC); conditions: inorganic phosphate, 37 °C
T1 sequence (A0A7G5MNS2 1-804): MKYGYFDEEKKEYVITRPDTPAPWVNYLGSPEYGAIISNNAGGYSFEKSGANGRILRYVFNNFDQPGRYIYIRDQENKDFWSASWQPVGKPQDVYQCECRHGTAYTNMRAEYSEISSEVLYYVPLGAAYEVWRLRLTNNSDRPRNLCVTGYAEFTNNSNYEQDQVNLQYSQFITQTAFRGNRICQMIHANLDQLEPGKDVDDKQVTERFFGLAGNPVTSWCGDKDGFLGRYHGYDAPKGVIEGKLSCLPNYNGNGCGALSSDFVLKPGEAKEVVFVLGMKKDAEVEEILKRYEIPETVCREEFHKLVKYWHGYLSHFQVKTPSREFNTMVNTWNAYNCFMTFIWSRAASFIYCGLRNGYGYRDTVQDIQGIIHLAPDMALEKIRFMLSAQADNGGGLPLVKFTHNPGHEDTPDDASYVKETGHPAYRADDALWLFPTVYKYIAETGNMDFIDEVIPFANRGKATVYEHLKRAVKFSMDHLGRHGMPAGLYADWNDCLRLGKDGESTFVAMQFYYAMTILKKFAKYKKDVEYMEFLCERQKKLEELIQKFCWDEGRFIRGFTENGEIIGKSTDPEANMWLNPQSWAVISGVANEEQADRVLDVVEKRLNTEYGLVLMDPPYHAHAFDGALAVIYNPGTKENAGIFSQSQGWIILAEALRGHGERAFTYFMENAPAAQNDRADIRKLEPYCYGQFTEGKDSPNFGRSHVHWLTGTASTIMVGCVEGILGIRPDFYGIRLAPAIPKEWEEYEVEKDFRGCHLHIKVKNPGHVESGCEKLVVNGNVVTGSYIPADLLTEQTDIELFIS
Method: TLC was used for analyzing enzymatic actions. […] Kinetics parameters for BpGH94MLG were determined with G4G3G, G4G4G3G and cellotriose, following a p-hydroxybenzoic acid hydrazide (PAHBAH) reducing sugar assay ([69]).

BPGH16 mutant D381A = test: Kinetics of BPGH16 mutant D381A (DNS assay)
Method: The residues R331, L358, E379, D381, E384, W362, and H398 of BpGH16MLG were mutated to Ala by the Q5Site-Directed Mutagenesis Kit (New England Biolabs, UK, catalogue no. E0554S). Wild-type plasmid BpGH16-pET28a(+) was used as a template, and mutagenic forward and reverse primers were developed using NEBaseChanger with subtle modifications (Table S4). A 25 μl PCR cocktail was prepared for mutating each residue. The final concentration of Q5 Hot Start High-Fidelity 2X Master Mix was 1X, each primer was at 0.5 μM, the amount of used template was 20 ng, and the rest of the volume was made up of nuclease-free water. PCR was executed using the following conditions-initial denaturation was performed at 98 °C for 1 min, for each cycle-denaturation, annealing, and extension (72 °C) were set for 10 s, 20 s, and 7 min, respectively. A total of 25 cycles were performed, and the final extension was for 5 min 5 μl PCR products were loaded on 0.8% agarose gel to conform to the amplification of the mutagenic gene. Ligation of PCR products and cleavage of methylated template DNA was then performed using 5 μl KLD reaction buffer and 1 μl KLD enzyme cocktail at RT for 1 h. It was then transformed into E. coli TOP-10 cells and plasmids were isolated. The obtained plasmids were sequenced to confirm the mutation at the desired location. Once mutation was confirmed in a gene, the mutant plasmid was transformed into Rosetta (DE3) cells for protein expression. The mutant protein was then expressed as per the protocol mentioned earlier, and kinetics were performed with barley β-glucan.
Reactions were performed in 100 μl volume mixture using recombinant enzyme (final concentration at 0.1 mg/ml) in 50 mM sodium phosphate buffer (pH 5.7) at 37 °C for 1 h of incubation. Then, reactions were terminated by boiling for 5 min. Enzymatic assays were determined with 3,5- dinitrosalicylic acid (DNS) assay ([85]). In brief, 0.05 g Na2SO3 and 1 g DNS were mixed in a 50 ml water-containing reagent bottle and stirred about 6 h using a magnetic stirrer. After that, 200 μl phenol was added and made up to 100 ml. A working solution of DNS was prepared by adding 50 μl glucose (20% (w/v) stock) in prepared 100 ml of reagent mixtures and immediately used for experiments without adding NaOH. 80 μl DNS reagent was added to the reaction mixtures and incubated at 100 °C for 10 min, followed by ice-cooling for 10 min. Consequently, recorded the developed color spectrophotometrically at 575 nm ([85]). A standard curve generated by different concentrations of maltose was used for determining released reducing sugars in each case.

BPGH16 mutant W362A = test: Kinetics of BPGH16 mutant W362A (DNS assay)
Method: The residues R331, L358, E379, D381, E384, W362, and H398 of BpGH16MLG were mutated to Ala by the Q5Site-Directed Mutagenesis Kit (New England Biolabs, UK, catalogue no. E0554S). Wild-type plasmid BpGH16-pET28a(+) was used as a template, and mutagenic forward and reverse primers were developed using NEBaseChanger with subtle modifications (Table S4). A 25 μl PCR cocktail was prepared for mutating each residue. The final concentration of Q5 Hot Start High-Fidelity 2X Master Mix was 1X, each primer was at 0.5 μM, the amount of used template was 20 ng, and the rest of the volume was made up of nuclease-free water. PCR was executed using the following conditions-initial denaturation was performed at 98 °C for 1 min, for each cycle-denaturation, annealing, and extension (72 °C) were set for 10 s, 20 s, and 7 min, respectively. […] The mutant protein was then expressed as per the protocol mentioned earlier, and kinetics were performed with barley β-glucan.
Reactions were performed in 100 μl volume mixture using recombinant enzyme (final concentration at 0.1 mg/ml) in 50 mM sodium phosphate buffer (pH 5.7) at 37 °C for 1 h of incubation. […] Enzymatic assays were determined with 3,5- dinitrosalicylic acid (DNS) assay ([85]). […] Consequently, recorded the developed color spectrophotometrically at 575 nm ([85]). […]

## Barley β-glucan
BpGH16MLG
  activity of BpGH16MLG on substrate (initial screening): did cleave
BpGH94MLG
  phosphorolysis activity of BpGH94MLG (in words): catalyzed phosphorolysis
BPGH16 mutant D381A; D381A versus native enzyme
  overall loss in activity: 1.34 fold
  reduction in kcat: 1.7 fold
BPGH16 mutant D381A; mutant D381A, DNS assay
  Km: 0.17 ± 0.04 mg/mL
  kcat: 35.7 ± 1.1 s⁻¹
BPGH16 mutant W362A
  kcat: 0 s⁻¹
